Tested on: MV-4-11 cells
Assay: Gene expression microarray analysis (Affymetrix PrimeView) and GSEA
Type: cell-based, human
Parameters: RFU PODN (11730768_x_at) / Fold change /veh PODN (11730768_x_at) / RFU LINC00158 (11744669_a_at) / Fold change /veh LINC00158 (11744669_a_at) / RFU DUSP10 (11751237_a_at) / Fold change /veh DUSP10 (11751237_a_at) / RFU ID3 (11757404_x_at) / Fold change /veh ID3 (11757404_x_at) / RFU PLEKHG5 (11737974_s_at) / Fold change /veh PLEKHG5 (11737974_s_at) / RFU LRRC4B (11730491_at) / Fold change /veh LRRC4B (11730491_at) / RFU GIMAP4 (11747438_a_at) / Fold change /veh GIMAP4 (11747438_a_at) / RFU KRT8 (11758183_x_at) / Fold change /veh KRT8 (11758183_x_at) / RFU CNN1 (11734310_a_at) / Fold change /veh CNN1 (11734310_a_at) / RFU VPS37D (11726825_at) / Fold change /veh VPS37D (11726825_at) / RFU C10orf10 (11716522_x_at) / Fold change /veh C10orf10 (11716522_x_at) / RFU KIR2DL2 /// KIR2DL4 /// KIR2DL5A /// KIR2DL5B /// KIR2DS1 /// KIR2DS2 /// KIR2DS3 /// KIR2DS4 /// KIR3DL3 /// KIR3DL3 /// KIR3DS1 (11738374_at) / Fold change /veh KIR2DL2 /// KIR2DL4 /// KIR2DL5A /// KIR2DL5B /// KIR2DS1 /// KIR2DS2 /// KIR2DS3 /// KIR2DS4 /// KIR3DL3 /// KIR3DL3 /// KIR3DS1 (11738374_at) / RFU C1QL1 (11718748_at) / Fold change /veh C1QL1 (11718748_at) / RFU TMPRSS4 (11747572_a_at) / Fold change /veh TMPRSS4 (11747572_a_at) / RFU HAMP (11756126_x_at) / Fold change /veh HAMP (11756126_x_at) / RFU RNFT2 (11725882_a_at) / Fold change /veh RNFT2 (11725882_a_at) / RFU NR4A2 (11747474_a_at) / Fold change /veh NR4A2 (11747474_a_at) / RFU ABCC12 (11746883_a_at) / Fold change /veh ABCC12 (11746883_a_at) / RFU TMEM136 (11760407_x_at) / Fold change /veh TMEM136 (11760407_x_at) / RFU CLDN22 /// WWC2 (11732394_at) / Fold change /veh CLDN22 /// WWC2 (11732394_at) / RFU HLA-DPB1 (11760878_x_at) / Fold change /veh HLA-DPB1 (11760878_x_at) / RFU SPINT1 (11716480_a_at) / Fold change /veh SPINT1 (11716480_a_at) / RFU GAP43 (11754022_s_at) / Fold change /veh GAP43 (11754022_s_at) / RFU A4GNT (11735810_at) / Fold change /veh A4GNT (11735810_at) / RFU PRB3 (11715151_x_at) / Fold change /veh PRB3 (11715151_x_at) / RFU TUBB4B (11761932_at) / Fold change /veh TUBB4B (11761932_at) / RFU CAPN14 (11732068_a_at) / Fold change /veh CAPN14 (11732068_a_at) / RFU TMCC2 (11721928_a_at) / Fold change /veh TMCC2 (11721928_a_at) / RFU IRGQ (11745062_a_at) / Fold change /veh IRGQ (11745062_a_at) / RFU FAM174B (11720279_a_at) / Fold change /veh FAM174B (11720279_a_at) / RFU TMPRSS4 (11748680_a_at) / Fold change /veh TMPRSS4 (11748680_a_at) / RFU FAM212B (11763350_a_at) / Fold change /veh FAM212B (11763350_a_at) / RFU PLEKHG5 (11743358_a_at) / Fold change /veh PLEKHG5 (11743358_a_at) / RFU ZSCAN30 (11745921_a_at) / Fold change /veh ZSCAN30 (11745921_a_at) / RFU CMKLR1 (11741424_a_at) / Fold change /veh CMKLR1 (11741424_a_at) / RFU LOC101060620 /// MAPK8IP1 (11723275_at) / Fold change /veh LOC101060620 /// MAPK8IP1 (11723275_at) / RFU SPTSSB (11747773_x_at) / Fold change /veh SPTSSB (11747773_x_at) / RFU PRSS12 (11739890_at) / Fold change /veh PRSS12 (11739890_at) / RFU BIN1 (11741810_x_at) / Fold change /veh BIN1 (11741810_x_at) / RFU WNT11 (11732464_a_at) / Fold change /veh WNT11 (11732464_a_at) / RFU C10orf10 (11716521_a_at) / Fold change /veh C10orf10 (11716521_a_at) / RFU C5orf56 (11738089_at) / Fold change /veh C5orf56 (11738089_at) / RFU CYB561 (11721691_x_at) / Fold change /veh CYB561 (11721691_x_at) / RFU ANKRD19P (11752326_a_at) / Fold change /veh ANKRD19P (11752326_a_at) / RFU OR2T12 /// OR2T33 /// OR2T8 (11738714_s_at) / Fold change /veh OR2T12 /// OR2T33 /// OR2T8 (11738714_s_at) / RFU VCAN (11748164_a_at) / Fold change /veh VCAN (11748164_a_at) / RFU JSRP1 (11732532_at) / Fold change /veh JSRP1 (11732532_at) / RFU KRTAP10-11 (11738290_x_at) / Fold change /veh KRTAP10-11 (11738290_x_at) / RFU MYO3A (11730013_a_at) / Fold change /veh MYO3A (11730013_a_at) / RFU EBF3 (11725865_a_at) / Fold change /veh EBF3 (11725865_a_at) / RFU CAMK2N1 (11719241_x_at) / Fold change /veh CAMK2N1 (11719241_x_at) / RFU C5orf56 (11738088_a_at) / Fold change /veh C5orf56 (11738088_a_at) / RFU OLFML3 (11715873_a_at) / Fold change /veh OLFML3 (11715873_a_at) / RFU LOC100653217 /// NTM (11731650_a_at) / Fold change /veh LOC100653217 /// NTM (11731650_a_at) / RFU MAPK11 (11762145_a_at) / Fold change /veh MAPK11 (11762145_a_at) / RFU FIZ1 (11724087_x_at) / Fold change /veh FIZ1 (11724087_x_at) / RFU OASL (11726364_x_at) / Fold change /veh OASL (11726364_x_at) / RFU SOX15 (11748057_x_at) / Fold change /veh SOX15 (11748057_x_at) / RFU CD79A (11719716_a_at) / Fold change /veh CD79A (11719716_a_at) / RFU HIST1H1D (11736915_at) / Fold change /veh HIST1H1D (11736915_at) / RFU CASKIN2 (11723855_a_at) / Fold change /veh CASKIN2 (11723855_a_at) / RFU LOC730098 (11760151_x_at) / Fold change /veh LOC730098 (11760151_x_at) / RFU OR4N2 (11742367_at) / Fold change /veh OR4N2 (11742367_at) / RFU PRRT2 (11749266_a_at) / Fold change /veh PRRT2 (11749266_a_at) / RFU SNX32 (11753110_a_at) / Fold change /veh SNX32 (11753110_a_at) / RFU CDHR5 (11726645_a_at) / Fold change /veh CDHR5 (11726645_a_at) / RFU RCAN1 (11760418_a_at) / Fold change /veh RCAN1 (11760418_a_at) / RFU FAM167A (11723789_a_at) / Fold change /veh FAM167A (11723789_a_at) / RFU FAM26E (11764081_at) / Fold change /veh FAM26E (11764081_at) / RFU ISYNA1 (11749810_s_at) / Fold change /veh ISYNA1 (11749810_s_at) / RFU ACY1 (11761880_at) / Fold change /veh ACY1 (11761880_at) / RFU 11764098_at / Fold change /veh 11764098_at / RFU SAMD14 (11745864_x_at) / Fold change /veh SAMD14 (11745864_x_at) / RFU NPB (11741838_a_at) / Fold change /veh NPB (11741838_a_at) / RFU TMPRSS6 (11731388_a_at) / Fold change /veh TMPRSS6 (11731388_a_at) / RFU KRTAP10-2 (11738614_at) / Fold change /veh KRTAP10-2 (11738614_at) / RFU ARHGAP8 /// PRR5-ARHGAP8 (11727945_x_at) / Fold change /veh ARHGAP8 /// PRR5-ARHGAP8 (11727945_x_at) / RFU KRTAP5-7 /// NADSYN1 (11734609_at) / Fold change /veh KRTAP5-7 /// NADSYN1 (11734609_at) / RFU RASL12 (11751679_a_at) / Fold change /veh RASL12 (11751679_a_at) / RFU CDKN2B (11736163_a_at) / Fold change /veh CDKN2B (11736163_a_at) / RFU PRF1 (11729649_at) / Fold change /veh PRF1 (11729649_at) / RFU, ZNF638 /// ZNF638-IT1 / Fold change vs veh, ZNF638 /// ZNF638-IT1 / RFU, PANK3 / Fold change vs veh, PANK3 / RFU, SH3YL1 / Fold change vs veh, SH3YL1 / RFU, ZEB2 / Fold change vs veh, ZEB2 / RFU, NRIP1 / Fold change vs veh, NRIP1 / RFU, PTTG1IP / Fold change vs veh, PTTG1IP / RFU, CAPN2 / Fold change vs veh, CAPN2 / RFU, MED14 / Fold change vs veh, MED14 / RFU, SNORA58 / Fold change vs veh, SNORA58 / RFU, C1orf63 / Fold change vs veh, C1orf63 / RFU, LRRFIP1 / Fold change vs veh, LRRFIP1 / RFU, NDUFAF7 / Fold change vs veh, NDUFAF7 / RFU, SLC12A2 / Fold change vs veh, SLC12A2 / RFU, IBTK / Fold change vs veh, IBTK / RFU, ESF1 / Fold change vs veh, ESF1 / Fold change vs veh, TMEM50B / RFU, TAOK1 / Fold change vs veh, TAOK1 / RFU, ACBD3 / Fold change vs veh, ACBD3 / RFU, TMA16 / Fold change vs veh, TMA16 / RFU, RWDD3 / Fold change vs veh, RWDD3 / RFU, BCAT1 / Fold change vs veh, BCAT1 / RFU, EDEM3 / Fold change vs veh, EDEM3 / RFU, TMEM33 / Fold change vs veh, TMEM33 / RFU, WDR75 / Fold change vs veh, WDR75 / RFU, AHCTF1 / Fold change vs veh, AHCTF1 / RFU, TFRC / Fold change vs veh, TFRC / RFU, ZDHHC17 / Fold change vs veh, ZDHHC17 / RFU, NOM1 / Fold change vs veh, NOM1 / RFU, ARL8B / Fold change vs veh, ARL8B / RFU, ZBTB11 / Fold change vs veh, ZBTB11 / RFU, TAMM41 / Fold change vs veh, TAMM41 / RFU, KIAA1704 /// LOC100996395 / Fold change vs veh, KIAA1704 /// LOC100996395 / RFU, ING1 / Fold change vs veh, ING1 / RFU, TRMT61B / Fold change vs veh, TRMT61B / RFU, FUBP3 / Fold change vs veh, FUBP3 / RFU, TP53 / Fold change vs veh, TP53 / RFU, TNKS2 / Fold change vs veh, TNKS2 / RFU, ZFP14 / Fold change vs veh, ZFP14 / RFU, ACTR2 / Fold change vs veh, ACTR2 / RFU, PPP3R1 / Fold change vs veh, PPP3R1 / RFU, PIK3R1 / Fold change vs veh, PIK3R1 / RFU, HNRNPA1 / Fold change vs veh, HNRNPA1 / RFU, RNF170 / Fold change vs veh, RNF170 / RFU, ZNF28 / Fold change vs veh, ZNF28 / RFU, RNGTT / Fold change vs veh, RNGTT / RFU, OGT / Fold change vs veh, OGT / RFU, BRD1 / Fold change vs veh, BRD1 / RFU, MARS / Fold change vs veh, MARS / RFU, ZNF655 / Fold change vs veh, ZNF655 / RFU, FAHD1 / Fold change vs veh, FAHD1 / RFU, BDP1 / Fold change vs veh, BDP1 / RFU, LRRCC1 / Fold change vs veh, LRRCC1 / RFU, ARID1A / Fold change vs veh, ARID1A / RFU, ZNF146 / Fold change vs veh, ZNF146 / RFU, ZNF330 / Fold change vs veh, ZNF330 / RFU, GPN3 / Fold change vs veh, GPN3 / RFU, C9orf123 / Fold change vs veh, C9orf123 / RFU, N4BP2L2 / Fold change vs veh, N4BP2L2 / RFU, ARFIP1 / Fold change vs veh, ARFIP1 / RFU, FAM179B / Fold change vs veh, FAM179B / RFU, BCL10 / Fold change vs veh, BCL10 / RFU, UHRF1BP1L / Fold change vs veh, UHRF1BP1L / RFU, BET1 / Fold change vs veh, BET1 / RFU, CNOT2 / Fold change vs veh, CNOT2 / RFU, ZNF268 / Fold change vs veh, ZNF268 / Fold change vs veh, ZNF507 / RFU, DGCR2 / Fold change vs veh, DGCR2 / RFU, WDSUB1 / Fold change vs veh, WDSUB1 / Fold change vs veh, HSP90B1 /// MIR3652 / RFU, ADSS / Fold change vs veh, ADSS / RFU, GK / Fold change vs veh, GK / RFU, ZNF148 / Fold change vs veh, ZNF148 / RFU, TAF9 / Fold change vs veh, TAF9 / RFU, SLC1A5 / Fold change vs veh, SLC1A5 / RFU, SLMO2 / Fold change vs veh, SLMO2 / RFU, ABCC4 / Fold change vs veh, ABCC4 / RFU, LOC101060439 /// RAP1B / Fold change vs veh, LOC101060439 /// RAP1B / RFU, RFX7 / Fold change vs veh, RFX7 / RFU, GTPBP10 / Fold change vs veh, GTPBP10 / RFU, CNEP1R1 / Fold change vs veh, CNEP1R1 / RFU, BIVM-ERCC5 /// ERCC5 / Fold change vs veh, BIVM-ERCC5 /// ERCC5 / RFU, ILF3 / Fold change vs veh, ILF3 / RFU 11762660_at / Fold change /veh 11762660_at / RFU VCAN (11757783_s_at) / Fold change /veh VCAN (11757783_s_at) / RFU DDX43 (11728927_at) / Fold change /veh DDX43 (11728927_at) / RFU KRT8 (11758188_x_at) / Fold change /veh KRT8 (11758188_x_at) / RFU NKD1 (11759106_at) / Fold change /veh NKD1 (11759106_at) / RFU SRD5A1 (11742802_a_at) / Fold change /veh SRD5A1 (11742802_a_at) / RFU TPSAB1 /// TPSB2 (11721975_s_at) / Fold change /veh TPSAB1 /// TPSB2 (11721975_s_at) / RFU GSTM3 (11746129_a_at) / Fold change /veh GSTM3 (11746129_a_at) / RFU IL23R (11737362_x_at) / Fold change /veh IL23R (11737362_x_at) / RFU TMEM51 (11727254_a_at) / Fold change /veh TMEM51 (11727254_a_at) / RFU PIWIL2 (11732686_x_at) / Fold change /veh PIWIL2 (11732686_x_at) / RFU ORM1 (11744905_x_at) / Fold change /veh ORM1 (11744905_x_at) / RFU CCDC152 (11743942_at) / Fold change /veh CCDC152 (11743942_at) / RFU ECM1 (11717891_a_at) / Fold change /veh ECM1 (11717891_a_at) / RFU IL23R (11748794_a_at) / Fold change /veh IL23R (11748794_a_at) / RFU TNFAIP8L3 (11732012_x_at) / Fold change /veh TNFAIP8L3 (11732012_x_at) / RFU MBOAT4 (11741988_at) / Fold change /veh MBOAT4 (11741988_at) / RFU 11764193_at / Fold change /veh 11764193_at / RFU TMEM53 (11763286_at) / Fold change /veh TMEM53 (11763286_at) / RFU MAGEB2 (11727129_at) / Fold change /veh MAGEB2 (11727129_at) / RFU TMEM200A (11744735_a_at) / Fold change /veh TMEM200A (11744735_a_at) / RFU CCDC152 (11751479_a_at) / Fold change /veh CCDC152 (11751479_a_at) / RFU FAM211A (11726209_a_at) / Fold change /veh FAM211A (11726209_a_at) / RFU RGS16 (11746705_a_at) / Fold change /veh RGS16 (11746705_a_at) / RFU VCAN (11755009_s_at) / Fold change /veh VCAN (11755009_s_at) / RFU RHOB (11743442_s_at) / Fold change /veh RHOB (11743442_s_at) / RFU RGS16 (11720943_a_at) / Fold change /veh RGS16 (11720943_a_at) / RFU RGS16 (11720944_at) / Fold change /veh RGS16 (11720944_at) / RFU, VPS4B / Fold change vs veh, VPS4B / RFU, CREB1 / Fold change vs veh, CREB1 / RFU, DNAJC13 / Fold change vs veh, DNAJC13 / RFU, GNAQ / Fold change vs veh, GNAQ / RFU, CDK5R1 / Fold change vs veh, CDK5R1 / RFU, ZRANB3 / Fold change vs veh, ZRANB3 / RFU, CUL4A / Fold change vs veh, CUL4A / RFU, CCNY / Fold change vs veh, CCNY / RFU, UFL1 / Fold change vs veh, UFL1 / RFU, COG3 / Fold change vs veh, COG3 / RFU, DIAPH2 / Fold change vs veh, DIAPH2 / RFU, SKA2 / Fold change vs veh, SKA2 / RFU, AFF3 / Fold change vs veh, AFF3 / RFU, LMF1 / Fold change vs veh, LMF1 / RFU, IPO11 / Fold change vs veh, IPO11 / RFU, DFFB / Fold change vs veh, DFFB / RFU, FOXP1 / Fold change vs veh, FOXP1 / RFU, CARD8 / Fold change vs veh, CARD8 / RFU, STRN3 / Fold change vs veh, STRN3 / RFU, ADK / Fold change vs veh, ADK / RFU, RASSF2 / Fold change vs veh, RASSF2 / RFU, WIPF1 / Fold change vs veh, WIPF1 / RFU, LARP1B / Fold change vs veh, LARP1B / RFU, RASA1 / Fold change vs veh, RASA1 / RFU, RB1 / Fold change vs veh, RB1 / RFU, PPFIA1 / Fold change vs veh, PPFIA1 / RFU, MAT2A / Fold change vs veh, MAT2A / RFU, CCT5 / Fold change vs veh, CCT5 / RFU, WDR92 / Fold change vs veh, WDR92 / RFU, CUX1 / Fold change vs veh, CUX1 / RFU, TTC7A / Fold change vs veh, TTC7A / RFU, TMEM135 / Fold change vs veh, TMEM135 / RFU, DEPTOR / Fold change vs veh, DEPTOR / RFU, CPM / Fold change vs veh, CPM / RFU, DNAJB6 / Fold change vs veh, DNAJB6 / RFU, CACNA2D3 / Fold change vs veh, CACNA2D3 / RFU, DTX4 / Fold change vs veh, DTX4 / RFU, TFCP2 / Fold change vs veh, TFCP2 / RFU, GMCL1 /// GMCL1P1 / Fold change vs veh, GMCL1 /// GMCL1P1 / RFU, AEBP2 / Fold change vs veh, AEBP2 / RFU, SNHG1 /// SNORD22 /// SNORD25 /// SNORD26 /// SNORD27 /// SNORD28 /// SNORD29 /// SNORD31 / Fold change vs veh, SNHG1 /// SNORD22 /// SNORD25 /// SNORD26 /// SNORD27 /// SNORD28 /// SNORD29 /// SNORD31 / Fold change (Aza/veh), C12orf56 (ProbeSet 11735607_a_at) / Fold change (ACY-1035/veh), C12orf56 (ProbeSet 11735607_a_at) / Fold change (Aza/veh), FGFR1OP (ProbeSet 11751329_s_at) / Fold change (ACY-1035/veh), FGFR1OP (ProbeSet 11751329_s_at) / Fold change (Aza/veh), VPS36 (ProbeSet 11739960_a_at) / Fold change (ACY-1035/veh), VPS36 (ProbeSet 11739960_a_at) / RFU SYPL1 (11715823_x_at) / Fold change /veh SYPL1 (11715823_x_at) / RFU IGFBP7 (11715501_s_at) / Fold change /veh IGFBP7 (11715501_s_at) / RFU REEP3 (11722064_at) / Fold change /veh REEP3 (11722064_at) / RFU IGLL1 (11728026_x_at) / Fold change /veh IGLL1 (11728026_x_at): dose or concentration left out as unconfirmed
Conditions: ProbeSet 11741311_a_at; LIST B

Nc1ncn([C@@H]2O[C@H](CO)[C@@H](O)[C@H]2O)c(=O)n1 [azacitidine]
Fold change vs veh, ZNF655: 0.98

— article PMC5218480 (PLoS ONE, 2017)
